In ChEMBL document CHEMBL1909046, “DrugMatrix in vitro pharmacology data”:

Key:
[1] = biological target: T1, Alpha-1A adrenergic receptor (Rattus norvegicus, UniProt P43140); assay: DRUGMATRIX: Alpha-1A adrenergic receptor radioligand binding (ligand: prazosin); format: cell membranes, Wistar, Submaxillary gland, Membrane; settings: Not Active = under 50% inhibition at 10 µM; for Ki: read-out: Ki
T1 sequence (P43140 whole entry): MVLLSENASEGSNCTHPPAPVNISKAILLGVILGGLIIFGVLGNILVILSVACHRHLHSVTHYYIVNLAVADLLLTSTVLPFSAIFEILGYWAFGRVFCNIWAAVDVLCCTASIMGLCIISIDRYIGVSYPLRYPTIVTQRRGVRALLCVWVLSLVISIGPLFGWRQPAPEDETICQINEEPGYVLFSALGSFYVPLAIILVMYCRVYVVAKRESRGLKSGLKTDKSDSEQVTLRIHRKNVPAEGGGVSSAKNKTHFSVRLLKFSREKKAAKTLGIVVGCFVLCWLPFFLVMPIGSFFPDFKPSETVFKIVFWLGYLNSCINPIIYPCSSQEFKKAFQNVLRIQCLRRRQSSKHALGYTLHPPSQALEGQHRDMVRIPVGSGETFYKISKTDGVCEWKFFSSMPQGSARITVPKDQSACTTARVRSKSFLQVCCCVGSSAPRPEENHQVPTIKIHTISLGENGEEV

[2] = biological target: T2, Interstitial collagenase (Homo sapiens, UniProt P03956); assay: biochemical; format: tissue-based, Rheumatoid synovial fibroblasts;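 note: MMP-1 enzyme inhibition assay using a peptide substrate; in other assays of this panel Not Active means under 50% inhibition at 10 µM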
T2 sequence (P03956 whole entry): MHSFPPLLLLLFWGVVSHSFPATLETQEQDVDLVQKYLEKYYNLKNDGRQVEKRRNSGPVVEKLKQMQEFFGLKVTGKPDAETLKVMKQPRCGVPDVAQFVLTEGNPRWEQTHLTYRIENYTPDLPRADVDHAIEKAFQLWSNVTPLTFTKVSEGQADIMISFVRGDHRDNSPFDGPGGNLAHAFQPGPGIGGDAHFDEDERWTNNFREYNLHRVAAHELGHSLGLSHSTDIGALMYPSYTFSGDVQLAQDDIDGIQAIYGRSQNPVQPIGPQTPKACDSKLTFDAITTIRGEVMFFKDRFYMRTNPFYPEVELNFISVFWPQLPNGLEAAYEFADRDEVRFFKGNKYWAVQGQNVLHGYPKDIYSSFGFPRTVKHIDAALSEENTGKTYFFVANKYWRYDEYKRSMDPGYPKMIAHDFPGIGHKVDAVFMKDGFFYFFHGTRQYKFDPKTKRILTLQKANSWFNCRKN

[3] = biological target: T3, Neuropeptide Y receptor type 1 (Homo sapiens, UniProt P25929); format: cell membranes, Membrane; settings: sk-n-mc; note: in other assays of this panel Not Active means under 50% inhibition at 10 µM
T3 sequence (P25929 whole entry): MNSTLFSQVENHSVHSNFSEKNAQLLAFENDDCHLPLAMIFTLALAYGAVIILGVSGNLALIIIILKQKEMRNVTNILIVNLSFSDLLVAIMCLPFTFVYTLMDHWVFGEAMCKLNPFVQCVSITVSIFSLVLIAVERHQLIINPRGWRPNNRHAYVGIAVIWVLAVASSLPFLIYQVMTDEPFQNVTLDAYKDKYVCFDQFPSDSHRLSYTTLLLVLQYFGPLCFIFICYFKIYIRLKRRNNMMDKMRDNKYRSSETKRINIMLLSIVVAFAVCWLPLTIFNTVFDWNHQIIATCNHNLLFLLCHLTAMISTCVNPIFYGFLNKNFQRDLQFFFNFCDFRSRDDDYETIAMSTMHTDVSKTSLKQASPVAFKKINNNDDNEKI

[4] = biological target: Voltage-gated inwardly rectifying potassium channel KCNH2 (Homo sapiens, UniProt Q12809); settings: hek293; note: in other assays of this panel Not Active means under 50% inhibition at 10 µM
[5] = DRUGMATRIX: Sigma2 radioligand binding (ligand: [3H] Ifenprodil); format: cell membranes, Rattus norvegicus, Wistar, Brain, Membrane; settings: Not Active = under 50% inhibition at 10 µM
[6] = biological target: Sigma non-opioid intracellular receptor 1 (Homo sapiens, UniProt Q99720); assay: DRUGMATRIX: Sigma1 radioligand binding (ligand: [3H] Haloperidol); format: cell membranes, Jurkat, Membrane; settings: jurkat; Not Active = under 50% inhibition at 10 µM
[7] = biological target: Cannabinoid receptor 1 (Homo sapiens, UniProt P21554); format: cell membranes, Chem-1, Membrane; note: in other assays of this panel Not Active means under 50% inhibition at 10 µM
[8] = biological target: 5-hydroxytryptamine receptor 2B (Homo sapiens, UniProt P41595); format: cell membranes, CHO-K1, Membrane; settings: cho-k1; note: in other assays of this panel Not Active means under 50% inhibition at 10 µM
[9] = biological target: Epidermal growth factor receptor (Homo sapiens, UniProt P00533); assay: DRUGMATRIX: Protein Tyrosine Kinase, EGF Receptor enzyme inhibition (substrate: Poly(Glu:Tyr)); format: cell-based, Insect cells; settings: insect cells; Not Active = under 50% inhibition at 10 µM
Sequence of Epidermal growth factor receptor (P00533 whole entry): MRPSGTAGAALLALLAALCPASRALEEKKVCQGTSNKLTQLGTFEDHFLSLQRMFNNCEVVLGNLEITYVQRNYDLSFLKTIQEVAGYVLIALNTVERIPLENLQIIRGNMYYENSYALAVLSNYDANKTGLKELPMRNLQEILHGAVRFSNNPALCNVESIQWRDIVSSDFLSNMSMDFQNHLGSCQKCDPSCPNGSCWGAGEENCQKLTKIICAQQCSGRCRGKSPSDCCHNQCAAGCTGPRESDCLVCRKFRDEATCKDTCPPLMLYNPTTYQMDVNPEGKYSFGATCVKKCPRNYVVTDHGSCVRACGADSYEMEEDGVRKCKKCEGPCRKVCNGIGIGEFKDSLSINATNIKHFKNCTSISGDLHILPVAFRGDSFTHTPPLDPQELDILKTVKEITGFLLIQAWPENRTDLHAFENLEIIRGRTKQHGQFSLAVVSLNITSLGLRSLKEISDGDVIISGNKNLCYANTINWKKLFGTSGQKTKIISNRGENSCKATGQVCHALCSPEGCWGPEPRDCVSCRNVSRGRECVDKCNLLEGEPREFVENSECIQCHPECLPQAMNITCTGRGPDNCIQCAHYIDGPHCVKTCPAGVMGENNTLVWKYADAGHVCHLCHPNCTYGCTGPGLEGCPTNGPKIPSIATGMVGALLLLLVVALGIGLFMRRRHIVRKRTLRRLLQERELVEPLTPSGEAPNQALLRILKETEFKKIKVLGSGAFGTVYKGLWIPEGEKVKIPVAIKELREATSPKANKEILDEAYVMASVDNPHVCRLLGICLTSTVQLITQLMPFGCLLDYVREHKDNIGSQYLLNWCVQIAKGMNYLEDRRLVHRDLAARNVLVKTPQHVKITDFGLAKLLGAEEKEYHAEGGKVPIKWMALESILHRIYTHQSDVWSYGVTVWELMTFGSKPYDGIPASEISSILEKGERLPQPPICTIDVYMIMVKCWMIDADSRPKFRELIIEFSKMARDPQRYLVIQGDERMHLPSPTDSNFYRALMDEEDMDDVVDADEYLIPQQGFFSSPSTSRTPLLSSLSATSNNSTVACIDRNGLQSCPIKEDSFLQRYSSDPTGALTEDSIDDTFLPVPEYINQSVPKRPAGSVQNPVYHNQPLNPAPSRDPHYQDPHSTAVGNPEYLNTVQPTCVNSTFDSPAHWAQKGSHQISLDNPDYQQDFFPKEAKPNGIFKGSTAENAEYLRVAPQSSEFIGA

Sequence of Sigma non-opioid intracellular receptor 1 (Q99720 whole entry): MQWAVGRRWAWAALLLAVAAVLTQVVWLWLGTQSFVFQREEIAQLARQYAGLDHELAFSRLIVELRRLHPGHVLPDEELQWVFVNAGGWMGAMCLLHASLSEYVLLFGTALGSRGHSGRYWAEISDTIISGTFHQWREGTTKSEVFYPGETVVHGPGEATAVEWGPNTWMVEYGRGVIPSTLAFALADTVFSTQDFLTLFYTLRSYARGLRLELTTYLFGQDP
Sequence of 5-hydroxytryptamine receptor 2B (P41595 whole entry): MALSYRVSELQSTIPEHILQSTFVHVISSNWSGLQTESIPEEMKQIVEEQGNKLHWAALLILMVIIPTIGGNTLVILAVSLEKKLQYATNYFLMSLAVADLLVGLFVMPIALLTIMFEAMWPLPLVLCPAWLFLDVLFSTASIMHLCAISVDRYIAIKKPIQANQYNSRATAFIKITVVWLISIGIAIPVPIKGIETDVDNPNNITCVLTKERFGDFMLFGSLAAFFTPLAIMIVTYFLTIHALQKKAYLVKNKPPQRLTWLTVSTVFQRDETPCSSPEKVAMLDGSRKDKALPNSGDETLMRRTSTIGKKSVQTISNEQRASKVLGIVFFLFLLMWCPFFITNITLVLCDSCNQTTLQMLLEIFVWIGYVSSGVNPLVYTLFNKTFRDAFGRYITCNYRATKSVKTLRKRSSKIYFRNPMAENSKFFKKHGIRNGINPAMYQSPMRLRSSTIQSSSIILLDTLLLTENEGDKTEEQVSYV
Sequence of Cannabinoid receptor 1 (P21554 whole entry): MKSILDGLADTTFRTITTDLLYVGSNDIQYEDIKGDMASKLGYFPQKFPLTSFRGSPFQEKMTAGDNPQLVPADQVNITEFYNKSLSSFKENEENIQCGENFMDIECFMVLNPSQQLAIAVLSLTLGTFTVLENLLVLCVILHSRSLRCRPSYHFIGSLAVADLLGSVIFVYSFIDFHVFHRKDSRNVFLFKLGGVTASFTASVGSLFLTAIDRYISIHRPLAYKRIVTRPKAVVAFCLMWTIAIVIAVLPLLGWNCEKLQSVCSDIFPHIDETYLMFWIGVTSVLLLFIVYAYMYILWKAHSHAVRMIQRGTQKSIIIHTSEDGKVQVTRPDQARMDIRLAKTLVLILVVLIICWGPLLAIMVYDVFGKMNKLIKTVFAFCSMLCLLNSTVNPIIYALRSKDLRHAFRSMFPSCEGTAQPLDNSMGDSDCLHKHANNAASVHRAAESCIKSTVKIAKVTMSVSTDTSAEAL
Sequence of Voltage-gated inwardly rectifying potassium channel KCNH2 (Q12809 whole entry): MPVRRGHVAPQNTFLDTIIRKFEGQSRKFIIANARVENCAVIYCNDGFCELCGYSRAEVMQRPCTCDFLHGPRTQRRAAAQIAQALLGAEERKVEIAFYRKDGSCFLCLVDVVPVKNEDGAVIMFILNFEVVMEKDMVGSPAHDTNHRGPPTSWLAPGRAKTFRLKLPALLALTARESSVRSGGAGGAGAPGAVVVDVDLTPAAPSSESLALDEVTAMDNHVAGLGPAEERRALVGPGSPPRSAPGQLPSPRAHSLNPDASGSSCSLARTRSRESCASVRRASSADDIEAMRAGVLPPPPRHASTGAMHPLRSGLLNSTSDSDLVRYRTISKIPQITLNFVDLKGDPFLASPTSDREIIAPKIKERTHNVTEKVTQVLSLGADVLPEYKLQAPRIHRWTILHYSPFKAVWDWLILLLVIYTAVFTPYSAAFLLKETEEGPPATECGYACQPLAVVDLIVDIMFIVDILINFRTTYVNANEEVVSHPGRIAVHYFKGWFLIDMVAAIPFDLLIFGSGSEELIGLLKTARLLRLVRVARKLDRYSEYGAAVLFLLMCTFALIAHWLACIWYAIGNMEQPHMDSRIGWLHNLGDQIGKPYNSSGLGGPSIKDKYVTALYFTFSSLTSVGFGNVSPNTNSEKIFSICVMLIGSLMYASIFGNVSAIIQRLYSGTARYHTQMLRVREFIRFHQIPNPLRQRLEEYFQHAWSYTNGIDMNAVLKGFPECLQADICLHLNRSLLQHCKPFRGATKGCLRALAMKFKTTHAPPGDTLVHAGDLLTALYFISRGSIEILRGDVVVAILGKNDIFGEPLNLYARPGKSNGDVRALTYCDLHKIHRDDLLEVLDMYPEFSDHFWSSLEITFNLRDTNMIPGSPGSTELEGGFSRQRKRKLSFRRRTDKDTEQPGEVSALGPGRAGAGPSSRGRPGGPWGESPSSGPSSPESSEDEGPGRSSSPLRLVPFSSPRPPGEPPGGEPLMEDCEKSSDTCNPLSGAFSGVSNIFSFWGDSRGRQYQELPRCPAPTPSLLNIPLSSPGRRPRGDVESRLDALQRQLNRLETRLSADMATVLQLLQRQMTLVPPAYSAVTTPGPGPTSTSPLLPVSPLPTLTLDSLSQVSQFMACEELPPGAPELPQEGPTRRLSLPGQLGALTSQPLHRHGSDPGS

SMILES | IC50 [1] | IC50 [2] | IC50 [3] | IC50 [4] | Ki [4] | IC50 [5] | Ki [5] | IC50 [6] | IC50 ([7]; chem-1) | IC50 [8] | IC50 [9] | IC50 ([1]; read-out: IC50) [µM] | Ki [1] [µM] | IC50 ([5]; read-out: IC50) [µM] | Ki ([5]; read-out: Ki) [µM] | IC50 ([7]; read-out: IC50) [µM] | Ki ([7]; read-out: Ki) [µM]
CC1=C(CC(=O)O)c2cc(F)ccc2/C1=C\c1ccc([S+](C)[O-])cc1 (stereo not drawn) | Not Active | Not Active | Not Active | Not Active | Not Active | Not Active | Not Active | Not Active | Not Active | Not Active | Not Active | – | – | – | – | – | –
N[C@H](CSC(=S)NCc1ccccc1)C(=O)O | Not Active | Not Active | Not Active | Not Active | Not Active | Not Active | Not Active | Not Active | Not Active | Not Active | Not Active | – | – | – | – | – | –
CC(=O)N[C@@H]1[C@H](Oc2c3cc4cc2Oc2ccc(cc2Cl)[C@@H](O[C@@H]2O[C@@H](CO)[C@@H](O)[C@H](O)[C@@H]2NC(C)=O)[C@@H]2NC(=O)[C@H](NC(=O)[C@@H]4NC(=O)[C@H]4NC(=O)[C@@H](Cc5ccc(c(Cl)c5)O3)NC(=O)[C@H](N)c3ccc(O)c(c3)Oc3cc(O)cc4c3)c3ccc(O)c(c3)-c3c(O[C@H]4O[C@H](CO)[C@@H](O)[C@@H](O)[C@@H]4O)cc(O)cc3[C@@H](C(=O)O)NC2=O)O[C@@H](CO)[C@@H](O)[C@@H]1O | Not Active | Not Active | Not Active | Not Active | Not Active | Not Active | Not Active | Not Active | Not Active | Not Active | Not Active | – | – | – | – | – | –
Clc1ccc2c(c1)C(N1CCNCC1)=Nc1ccccc1O2 [AMOXAPINE] | – | Not Active | Not Active | Not Active | Not Active | – | – | Not Active | Not Active | – | Not Active | 0.357 | 0.144 | – | – | – | –
COc1cc2c(c(OC)c1OC)-c1ccc(OC)c(=O)cc1[C@@H](NC(C)=O)CC2 [COLCHICINE] | Not Active | Not Active | Not Active | Not Active | Not Active | – | – | Not Active | Not Active | Not Active | Not Active | – | – | – | – | – | –
CN1CCC(=C2c3ccccc3C=Cc3ccccc32)CC1 [CYPROHEPTADINE] | – | Not Active | Not Active | – | – | – | – | Not Active | Not Active | – | Not Active | 0.241 | 0.098 | – | – | – | –
CC/C(=C(/CC)c1ccc(O)cc1)c1ccc(O)cc1 [DIETHYLSTILBESTROL] | – | Not Active | Not Active | Not Active | Not Active | – | – | Not Active | Not Active | – | Not Active | 19.5 | 7.89 | – | – | – | –
CC(=O)N1CCN(c2ccc(OCC3COC(Cn4ccnc4)(c4ccc(Cl)cc4Cl)O3)cc2)CC1 (stereo not drawn) [KETOCONAZOLE] | – | Not Active | Not Active | – | – | – | – | Not Active | Not Active | Not Active | Not Active | 35.7 | 14.5 | 15.9 | 9.79 | – | –
C=CCN1CC[C@]23c4c5ccc(O)c4O[C@H]2C(=O)CC[C@@]3(O)[C@H]1C5 [NALOXONE] | Not Active | Not Active | Not Active | Not Active | Not Active | – | – | Not Active | Not Active | Not Active | Not Active | – | – | – | – | – | –
COCCOC(=O)C1=C(C)NC(C)=C(C(=O)OC(C)C)C1c1cccc([N+](=O)[O-])c1 (stereo not drawn) [NIMODIPINE] | Not Active | Not Active | Not Active | Not Active | Not Active | Not Active | Not Active | Not Active | – | Not Active | Not Active | – | – | – | – | 1.74 | 1.37
